Columns and labels:
[1] = Particle diameter by laser diffraction (Malvern Mastersizer); type: physicochemical
Protocol: The “particle diameter” refers to the equivalent spherical diameter as determined by laser light scattering method. Particle diameter of lamotrigine was determined by laser diffraction. We determined the diameter of lamotrigine particles using a Malvern™ Mastersizer laser diffraction instrument. Samples of lamotrigine were suspended in hexane containing a surfactant (0.07% dioctyl sulfosuccinate sodium salt). The suspensions were mixed and then sonicated for 15 seconds to thoroughly disperse the lamotrigine particles. The dispersion was then recirculated in the flow cell of the Malvern Mastersizer for two minutes before particle diameter measurements were taken.

[2] = Specific surface area by gas adsorption, multipoint BET (Coulter SA3100); type: physicochemical; details: micronized particles; degassing 70° C., 30 minutes; 10 points
Source text: Gas adsorption analysis is a preferred method for determining the surface area of a sample of lamotrigine for purposes of this invention since it provides a direct measurement of surface area. It is therefore considered to be more accurate than other methods such as electron microscopy and laser diffraction that rely upon a model to obtain a value for surface area (e.g. equivalent sphere model).
We measured specific particle surface area by gas adsorption using a Coulter™ SA3100 Series adsorption analyzer. The specific surface area of a sample of lamotrigine particles was calculated by the multipoint Brunauer, Emmet and Teller (BET) method. Brunauer, S., P. H. Emmett, E. Teller, J. Am. Chem. Soc., 1938, 60, 309-319. The calculations of the surface area of lamotrigine particles and its precise weight would yield specific surface area (usually expressed as square meters/gram). […] The volume of the manifold was measured with helium gas using a conventional technique. […] The instrument's software calculated the moles of adsorbed N2 (based upon inputted sample mass, manifold volume and sample tube void volume) for ten equilibrium pressures (Ps). […]
The specific surface area of the lamotrigine particles was measured with a Coulter SA 3100, using the multipoint BET technique. […] For the linearity, 10 points were measured, using high sensitivity.

[3] = initial particles before air jet milling

SMILES | particle diameter, 50% of the particles equal to or less than [1, 3] [μm] | particle diameter, about 80% of the particles equal to or less than [1, 3] [μm] | diameter of all particles in the plurality ([1]; after micronization in air jet mill) | specific surface area [2]
Nc1nnc(-c2cccc(Cl)c2Cl)c(N)n1 [Lamotrigine, 3,5-diamino-6-(2,3-dichlorophenyl)-1,2,4-triazine] | ≤ 250 | ≤ 500 | – | –
Nc1nnc(-c2cccc(Cl)c2Cl)c(N)n1 [lamotrigine micronized particles, 3,5-diamino-6-(2,3-dichlorophenyl)-1,2,4-triazine] | – | – | less than 100 μm | 3.1-3.3 square meters per gram
